One test concerns the target T1, Protein ENL (Homo sapiens, UniProt Q03111).
T1 sequence (Q03111 whole entry): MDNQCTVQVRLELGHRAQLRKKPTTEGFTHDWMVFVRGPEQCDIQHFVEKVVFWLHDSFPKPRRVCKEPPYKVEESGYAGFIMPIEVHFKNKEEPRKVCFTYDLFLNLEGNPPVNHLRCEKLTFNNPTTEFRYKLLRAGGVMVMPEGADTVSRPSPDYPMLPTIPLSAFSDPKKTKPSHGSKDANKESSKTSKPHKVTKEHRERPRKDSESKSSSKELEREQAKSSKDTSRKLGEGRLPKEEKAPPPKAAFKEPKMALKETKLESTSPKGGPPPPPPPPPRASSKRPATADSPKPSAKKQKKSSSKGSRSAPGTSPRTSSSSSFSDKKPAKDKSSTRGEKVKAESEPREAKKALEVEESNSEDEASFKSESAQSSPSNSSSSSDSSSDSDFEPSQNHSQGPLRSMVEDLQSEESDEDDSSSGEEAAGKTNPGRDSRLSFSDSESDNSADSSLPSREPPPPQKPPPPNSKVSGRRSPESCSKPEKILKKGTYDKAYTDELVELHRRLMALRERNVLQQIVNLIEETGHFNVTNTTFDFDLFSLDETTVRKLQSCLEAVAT
In words: Displacement of N-Flu-DOT1L from MBP-tagged ENL (unknown origin) (489 to 559 residues) expressed in Escherichia coli BL21(DE3) measured after 3 hrs by fluorescence polarization assay. (In general: Polarisation of emitted light reports the rotation of a fluorescent probe.)

The target of the next test is T2, Protein AF-9 (Homo sapiens, UniProt P42568).
T2 sequence (P42568 whole entry): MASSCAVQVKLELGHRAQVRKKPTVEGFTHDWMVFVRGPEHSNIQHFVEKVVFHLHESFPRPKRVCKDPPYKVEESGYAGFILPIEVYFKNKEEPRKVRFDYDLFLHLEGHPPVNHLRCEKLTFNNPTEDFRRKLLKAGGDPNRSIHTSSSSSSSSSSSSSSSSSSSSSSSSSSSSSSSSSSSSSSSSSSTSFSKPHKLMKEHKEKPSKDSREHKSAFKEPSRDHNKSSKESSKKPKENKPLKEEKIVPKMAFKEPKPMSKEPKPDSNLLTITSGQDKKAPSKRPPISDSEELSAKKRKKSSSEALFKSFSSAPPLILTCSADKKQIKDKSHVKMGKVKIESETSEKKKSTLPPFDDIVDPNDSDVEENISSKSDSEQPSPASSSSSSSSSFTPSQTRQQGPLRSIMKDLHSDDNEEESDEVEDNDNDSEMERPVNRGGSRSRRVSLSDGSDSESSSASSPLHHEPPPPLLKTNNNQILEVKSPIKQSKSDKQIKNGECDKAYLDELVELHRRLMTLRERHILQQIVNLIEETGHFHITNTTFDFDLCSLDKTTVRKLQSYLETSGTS
In words: Displacement of N-Flu-DOT1L from MBP-tagged AF9 (unknown origin) (487 to 568 residues) expressed in Escherichia coli BL21(DE3) measured after 3 hrs by fluorescence polarization assay.

What is called IC50 is the concentration needed to halve the response being measured. As a reminder, the Ki is the dissociation constant of the complex between target and ligand, obtained from inhibition or displacement. A high value points to lower affinity.

Square brackets hold non-standard residues; d marks the D form. Peptide text beside a SMILES is read from it. * marks the point of attachment. X3 = c1ccc(-c2cn(CC3CCCCC3)c([C@@H]3CCCN3*)n2)cc1; X2 = CC(C)n1cc(-c2ccccc2)nc1[C@@H]1CCCN1*; X1 = CCn1cc(-c2ccccc2)nc1[C@@H]1CCCN1*; 1Nal = N[C@@H](Cc1cccc2ccccc12)C(=O)O; 2Nal = N[C@@H](Cc1ccc2ccccc2c1)C(=O)O; X4 = Cn1cc(-c2ccccc2)nc1[C@@H]1CCCN1*; Ala(cPent) = N[C@@H](CC1CCCC1)C(=O)O; Gly(cPent) = N[C@H](C(=O)O)C1CCCC1; Cha = N[C@@H](CC1CCCCC1)C(=O)O; Chg = N[C@H](C(=O)O)C1CCCCC1; Orn = NCCC[C@H](N)C(=O)O; Dap = NC[C@H](N)C(=O)O

At Protein ENL, `CC[C@H](C)[C@H](NC(=O)[C@H](CO)NC(=O)[C@H](Cc1ccccc1)NC(=O)[C@@H]1CCCN1C(=O)[C@H](CC(C)C)NC(C)=O)C(=O)N1CCC[C@H]1C(=O)N[C@@H](CC(C)C)C(=O)N(C)C` (Ac-LPFSIPL-NMe2) yielded an IC50 of 177000 nM and a Ki of 62000 nM. At Protein AF-9, the IC50 amounted to 30500 nM and the Ki is 5620 nM.
For `CC[C@H](C)[C@H](NC(=O)[C@@H]1CCCN1C(=O)[C@H](CC(C)C)NC(C)=O)C(=O)N[C@@H](CO)C(=O)N[C@@H](Cc1ccccc1)C(=O)N1CCC[C@H]1C(=O)N[C@@H](CC(C)C)C(=O)N(C)C` (Ac-LPISFPL-NMe2) the same measures were 22700 nM, 7730 nM, 1660 nM and 280 nM.
Take `CC[C@H](C)[C@H](NC(=O)[C@@H]1CCCN1C(=O)[C@H](CC(C)C)NC(C)=O)C(=O)N[C@@H](CO)C(=O)N[C@H](C(=O)N1CCC[C@H]1C(=O)N[C@@H](CC(C)C)C(=O)N(C)C)[C@@H](C)CC` (Ac-LPISIPL-NMe2): at Protein ENL, the IC50 was 6830 nM and the affinity corresponds to a Ki of 2150 nM. Moreover, at Protein AF-9, the IC50 was 1780 nM and affinity was put at a Ki of 300 nM.
At Protein ENL, `CC[C@H](C)[C@H](NC(=O)[C@@H]1CCCN1C(=O)[C@H](CC(C)C)NC(C)=O)C(=O)N[C@@H](CO)C(=O)N[C@@H](CC(C)C)C(=O)N1CCC[C@H]1C(=O)N[C@@H](CC(C)C)C(=O)N(C)C` (Ac-LPISLPL-NMe2) had an IC50 of 18600 nM and a Ki of 6290 nM. Moreover, at Protein AF-9, the IC50 was found to be 4660 nM and the affinity, expressed as Ki, was 830 nM.
For `CC[C@H](C)[C@H](NC(=O)[C@@H]1CCCN1C(=O)[C@H](CC(C)C)NC(C)=O)C(=O)N[C@@H](CO)C(=O)N[C@@H](Cc1c[nH]c2ccccc12)C(=O)N1CCC[C@H]1C(=O)N[C@@H](CC(C)C)C(=O)N(C)C` (Ac-LPISWPL-NMe2) the same measures were 7420 nM, 2350 nM, 2370 nM and 410 nM.
Regarding `CC[C@H](C)[C@H](NC(=O)[C@@H]1CCCN1C(=O)[C@H](CC(C)C)NC(C)=O)C(=O)N[C@@H](CO)C(=O)N[C@@H](Cc1cccc2ccccc12)C(=O)N1CCC[C@H]1C(=O)N[C@@H](CC(C)C)C(=O)N(C)C` (Ac-LPIS[1Nal]PL-NMe2), the IC50 is 57800 nM on Protein ENL and 14200 nM at Protein AF-9. The Ki stood at 20100 nM at Protein ENL and 2600 nM at Protein AF-9.
At Protein ENL, `CC[C@H](C)[C@H](NC(=O)[C@@H]1CCCN1C(=O)[C@H](CC(C)C)NC(C)=O)C(=O)N[C@@H](CO)C(=O)N[C@@H](Cc1ccc2ccccc2c1)C(=O)N1CCC[C@H]1C(=O)N[C@@H](CC(C)C)C(=O)N(C)C` (Ac-LPIS[2Nal]PL-NMe2) gave an IC50 of 42200 nM and a Ki of 14600 nM. Besides, on Protein AF-9, the IC50 stood at 4110 nM and the Ki stood at 730 nM.
With `CC[C@H](C)[C@H](NC(=O)[C@@H]1CCCN1C(=O)[C@H](CC(C)C)NC(C)=O)C(=O)N[C@@H](CO)C(=O)N[C@@H](CC1CCCC1)C(=O)N1CCC[C@H]1C(=O)N[C@@H](CC(C)C)C(=O)N(C)C` (Ac-LPIS[Ala(cPent)]PL-NMe2), on Protein ENL, the IC50 is 2170 nM and the affinity, expressed as Ki, was 510 nM. In addition, on Protein AF-9, the IC50 stood at 850 nM and affinity was put at a Ki of 130 nM.
Consider `CC[C@H](C)[C@H](NC(=O)[C@@H]1CCCN1C(=O)[C@H](CC(C)C)NC(C)=O)C(=O)N[C@@H](CO)C(=O)N[C@@H](CC1CCCCC1)C(=O)N1CCC[C@H]1C(=O)N[C@@H](CC(C)C)C(=O)N(C)C` (Ac-LPIS[Cha]PL-NMe2), for which, at Protein ENL, the IC50 was 6060 nM and the Ki was found to be 1880 nM. On Protein AF-9, this compound came in with an IC50 of 1140 nM and a Ki of 180 nM.
In the case of `CC[C@H](C)[C@H](NC(=O)[C@@H]1CCCN1C(=O)[C@H](CC(C)C)NC(C)=O)C(=O)N[C@@H](CO)C(=O)N[C@H](C(=O)N1CCC[C@H]1C(=O)N[C@@H](CC(C)C)C(=O)N(C)C)C1CCCCC1` (Ac-LPIS[Chg]PL-NMe2), on Protein ENL, the IC50 was 10500 nM and the Ki came out at 3440 nM. On Protein AF-9, this compound yielded a 50% inhibitory concentration (IC50) of 3490 nM and a Ki of 620 nM.
`CC[C@H](C)[C@H](NC(=O)[C@@H]1CCCN1C(=O)[C@H](CC(C)C)NC(C)=O)C(=O)N[C@@H](CO)C(=O)N[C@H](C(=O)N1CCC[C@H]1C(=O)N[C@@H](CC(C)C)C(=O)N(C)C)C1CCCC1` (Ac-LPIS[Gly(cPent)]PL-NMe2): the IC50 was found to be 4540 nM on Protein ENL and 1490 nM at Protein AF-9. In addition, the Ki on Protein ENL was 1340 nM; on Protein AF-9 it was 250 nM.
In the case of `CC[C@H](C)[C@H](NC(=O)[C@@H]1CCCN1C(=O)[C@H](CC(C)C)NC(C)=O)C(=O)N[C@@H](CN)C(=O)N[C@H](C(=O)N1CCC[C@H]1C(=O)N[C@@H](CC(C)C)C(=O)N(C)C)[C@@H](C)CC` (Ac-LPI[Dap]IPL-NMe2), the results for the IC50 on Protein ENL and at Protein AF-9 were 4250 nM and 1200 nM, respectively. The Ki on Protein ENL came out at 1240 nM; at Protein AF-9, 190 nM.
At Protein ENL, `CC[C@H](C)[C@H](NC(=O)[C@@H]1CCCN1C(=O)[C@H](CC(C)C)NC(C)=O)C(=O)N[C@@H](CN)C(=O)N[C@@H](CC1CCCC1)C(=O)N1CCC[C@H]1C(=O)N[C@@H](CC(C)C)C(=O)N(C)C` (Ac-LPI[Dap][Ala(cPent)]PL-NMe2) had an IC50 of 390 nM and a Ki of 90 nM. Also, on Protein AF-9, the concentration for half-maximal inhibition (IC50) stood at 120 nM and the affinity, expressed as Ki, was 20 nM.
As to `CC[C@H](C)[C@H](NC(=O)[C@@H]1CCCN1C(=O)[C@H](CC(C)C)NC(C)=O)C(=O)N[C@@H](CCCN)C(=O)N[C@H](C(=O)N1CCC[C@H]1C(=O)N[C@@H](CC(C)C)C(=O)N(C)C)[C@@H](C)CC` (Ac-LPI[Orn]IPL-NMe2), on Protein ENL, the IC50 is 172000 nM and the affinity, expressed as Ki, was 60200 nM. In addition, on Protein AF-9, the IC50 stood at 24300 nM and affinity was put at a Ki of 4250 nM.
As for `CC[C@H](C)[C@H](NC(=O)[C@H](CO)NC(=O)[C@H](CC(C)C)NC(=O)[C@@H]1CCCN1C(=O)[C@H](CC(C)C)NC(C)=O)C(=O)N1CCC[C@H]1C(=O)N[C@@H](CC(C)C)C(=O)N(C)C` (Ac-LPLSIPL-NMe2), at Protein ENL, the IC50 turned out to be 43900 nM and the inhibitory constant (Ki) was found to be 15200 nM. On Protein AF-9, this compound returned an IC50 of 6400 nM and a Ki of 1160 nM.
As for `CC[C@H](C)[C@H](NC(=O)[C@H](CO)NC(=O)[C@@H](NC(=O)[C@@H]1CCCN1C(=O)[C@H](CC(C)C)NC(C)=O)C(C)C)C(=O)N1CCC[C@H]1C(=O)N[C@@H](CC(C)C)C(=O)N(C)C` (Ac-LPVSIPL-NMe2), the IC50 at Protein ENL is 3600 nM; on Protein AF-9, 1100 nM. Besides, the Ki on Protein ENL turned out to be 1010 nM; on Protein AF-9 it was 170 nM.
On to `CCn1cc(-c2ccccc2)nc1[C@@H]1CCCN1C(=O)[C@H](CC1CCCC1)NC(=O)[C@H](CN)NC(=O)[C@@H](NC(=O)[C@@H]1CCCN1C(=O)[C@H](CC(C)C)NC(C)=O)C(C)C` (Ac-LPV[Dap][Ala(cPent)]-X1), for which the IC50 at Protein ENL was 1570 nM; on Protein AF-9 it was 341 nM. Besides, the Ki on Protein ENL worked out at 369 nM; at Protein AF-9, 50 nM.
Turning to `CC(=O)N[C@@H](CC(C)C)C(=O)N1CCC[C@H]1C(=O)N[C@H](C(=O)N[C@@H](CN)C(=O)N[C@@H](CC1CCCC1)C(=O)N1CCC[C@H]1c1nc(-c2ccccc2)cn1C(C)C)C(C)C` (Ac-LPV[Dap][Ala(cPent)]-X2), the results for the half-inhibitory concentration (IC50) on Protein ENL and on Protein AF-9 were 1220 nM and 369 nM, respectively. The inhibition constant Ki at Protein ENL worked out at 287 nM; on Protein AF-9 it was 57 nM.
For `CC(=O)N[C@@H](CC(C)C)C(=O)N1CCC[C@H]1C(=O)N[C@H](C(=O)N[C@@H](CN)C(=O)N[C@@H](CC1CCCC1)C(=O)N1CCC[C@H]1c1nc(-c2ccccc2)cn1CC1CCCCC1)C(C)C` (Ac-LPV[Dap][Ala(cPent)]-X3) the same measures were 427 nM, 82 nM, 101 nM and 13 nM.
Turning to `CC(=O)N[C@@H](CC(C)C)C(=O)N1CCC[C@H]1C(=O)N[C@H](C(=O)N[C@@H](CN)C(=O)N[C@@H](CC1CCCC1)C(=O)N1CCC[C@H]1c1nc(-c2ccccc2)cn1C)C(C)C` (Ac-LPV[Dap][Ala(cPent)]-X4), the results for the IC50 at Protein ENL and at Protein AF-9 were 1770 nM and 372 nM, respectively. The values for the Ki on Protein ENL and on Protein AF-9 were 417 nM and 57 nM, respectively.
